These results are taken from patent publication US20160145242A1, “PHENYLIMIDAZOLE DERIVATIVE, AND THERAPEUTIC MEDICINE OR PREVENTIVE MEDICINE FOR INFLAMMATORY DISEASE, ETC” (NIPPON SODA CO., LTD., priority 2013, published 2016).

Usually inhibition stands for how much of the control response was suppressed.

This assay has as its target T1, human platelet-derived thromboxane synthase (Homo sapiens, UniProt P24557).
T1 construct: host or cells: human recombinant cells (so in the source); platelets
T1 sequence (P24557 1-533): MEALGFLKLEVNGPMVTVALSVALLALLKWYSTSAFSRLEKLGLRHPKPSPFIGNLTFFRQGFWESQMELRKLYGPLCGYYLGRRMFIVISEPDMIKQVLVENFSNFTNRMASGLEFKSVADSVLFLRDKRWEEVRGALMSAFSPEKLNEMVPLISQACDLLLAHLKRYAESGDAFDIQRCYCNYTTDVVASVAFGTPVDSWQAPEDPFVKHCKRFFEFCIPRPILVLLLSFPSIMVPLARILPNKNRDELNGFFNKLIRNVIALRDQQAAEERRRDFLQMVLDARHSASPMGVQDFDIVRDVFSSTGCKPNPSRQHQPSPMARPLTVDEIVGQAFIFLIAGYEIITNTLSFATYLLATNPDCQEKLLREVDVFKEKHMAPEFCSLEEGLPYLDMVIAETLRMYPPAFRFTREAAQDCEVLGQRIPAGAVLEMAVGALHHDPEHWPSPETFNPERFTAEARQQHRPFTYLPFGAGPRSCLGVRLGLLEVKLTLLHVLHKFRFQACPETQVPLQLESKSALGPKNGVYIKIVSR
Kind of assay: Thromboxane synthase activity inhibitory action. The assay is classed as biochemical. To be noted: read-out: thromboxane synthase activity inhibition rate. Here is the method: The inhibitory action of the compound according to the present invention with respect to the activity of the present enzyme was examined using human platelet-derived thromboxane synthase.
Thromboxane synthase of human recombinant cells was reacted with 2.10 μM of prostaglandin H2 and the amount of thromboxane B2 which was a reaction product was measured by an enzyme-linked immunosorbent assay. 3 μM of the compound according to the present invention dissolved in dimethyl sulfoxide was added to the reaction system and the inhibition rate of thromboxane B2 generation (thromboxane synthase activity inhibition rate) was measured.

On to `CC(=O)N1CCN(c2ccc(N)c(-n3ccnc3)c2)CC1` [Compound 1-1, 4-acetyl-1-(4-amino-3-imidazole-1-yl-phenyl)piperazine], for which the inhibition at 3 µM worked out at 32%.
